# Measured values as given in patent US7981903B2, “2-[2-{phenylamino}-1H-pyrrolo[2,3-D]pyrimidin-4-yl)amino] benzamide derivatives as IGF-1R inhibitors for the treatment of cancer” (GlaxoSmithKline LLC, priority 2007, dated 2011).
# Tests used:
# [1] = molecular target: T1, human IR (hIR) (Homo sapiens, UniProt P06213); test: TR-FRET kinase assay of purified hIR; assay type: biochemical; settings: activated hIR 0.5 nM, 10 μM ATP, values given as pIC50 category
# T1 construct: containing amino acid residues 979-1382 of human IR; made in house; host or cells: Sf9 cells (baculovirus), same process as hIGF1R
# T1 sequence (P06213 979-1382): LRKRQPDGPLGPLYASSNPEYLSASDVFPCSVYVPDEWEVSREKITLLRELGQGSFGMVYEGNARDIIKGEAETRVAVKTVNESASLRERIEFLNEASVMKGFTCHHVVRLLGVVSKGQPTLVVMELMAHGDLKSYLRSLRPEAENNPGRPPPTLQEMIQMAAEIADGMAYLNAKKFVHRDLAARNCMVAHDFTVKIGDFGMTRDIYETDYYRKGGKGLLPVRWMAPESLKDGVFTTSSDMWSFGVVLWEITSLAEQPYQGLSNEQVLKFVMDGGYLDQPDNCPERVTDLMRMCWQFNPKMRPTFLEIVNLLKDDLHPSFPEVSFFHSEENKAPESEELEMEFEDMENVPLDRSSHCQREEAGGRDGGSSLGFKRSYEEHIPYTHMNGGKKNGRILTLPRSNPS
# [2] = molecular target: T2, human IGF1R (hIGF1R) (Homo sapiens, UniProt P08069); test: TR-FRET kinase assay of purified hIGF1R; assay type: biochemical; settings: activated hIGF1R 0.5 nM, 10 μM ATP, values given as pIC50 category, read-out: IGF-1R pIC50 (converted)
# T2 construct: containing amino acid residues 957-1367 of human IGF1R; made in house; host or cells: Sf9 cells (baculovirus)
# T2 sequence (P08069 957-1367): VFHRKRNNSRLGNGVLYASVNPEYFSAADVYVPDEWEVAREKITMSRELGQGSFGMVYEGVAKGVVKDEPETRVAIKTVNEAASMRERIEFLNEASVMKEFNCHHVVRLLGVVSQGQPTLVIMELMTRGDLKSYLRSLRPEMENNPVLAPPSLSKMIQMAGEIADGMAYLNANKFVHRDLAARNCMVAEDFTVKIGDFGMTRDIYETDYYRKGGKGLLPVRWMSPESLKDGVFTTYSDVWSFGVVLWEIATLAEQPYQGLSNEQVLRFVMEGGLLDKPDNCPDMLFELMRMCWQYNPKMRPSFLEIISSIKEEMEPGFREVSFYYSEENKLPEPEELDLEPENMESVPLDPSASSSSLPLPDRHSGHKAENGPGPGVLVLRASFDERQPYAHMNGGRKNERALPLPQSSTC
# [3] = molecular target: T3, NIH-3T3 cells overexpressing human IR (Homo sapiens, UniProt P06213); test: IR cellular autophosphorylation (DELFIA); assay type: cell-based; settings: 2 h compound, insulin 3 ug/ml for 15 minutes, IC50 category
# T3 construct: expressed in transfected cells; host or cells: NIH-3T3 (mouse fibroblasts)
# T3 sequence (P06213 28-1382): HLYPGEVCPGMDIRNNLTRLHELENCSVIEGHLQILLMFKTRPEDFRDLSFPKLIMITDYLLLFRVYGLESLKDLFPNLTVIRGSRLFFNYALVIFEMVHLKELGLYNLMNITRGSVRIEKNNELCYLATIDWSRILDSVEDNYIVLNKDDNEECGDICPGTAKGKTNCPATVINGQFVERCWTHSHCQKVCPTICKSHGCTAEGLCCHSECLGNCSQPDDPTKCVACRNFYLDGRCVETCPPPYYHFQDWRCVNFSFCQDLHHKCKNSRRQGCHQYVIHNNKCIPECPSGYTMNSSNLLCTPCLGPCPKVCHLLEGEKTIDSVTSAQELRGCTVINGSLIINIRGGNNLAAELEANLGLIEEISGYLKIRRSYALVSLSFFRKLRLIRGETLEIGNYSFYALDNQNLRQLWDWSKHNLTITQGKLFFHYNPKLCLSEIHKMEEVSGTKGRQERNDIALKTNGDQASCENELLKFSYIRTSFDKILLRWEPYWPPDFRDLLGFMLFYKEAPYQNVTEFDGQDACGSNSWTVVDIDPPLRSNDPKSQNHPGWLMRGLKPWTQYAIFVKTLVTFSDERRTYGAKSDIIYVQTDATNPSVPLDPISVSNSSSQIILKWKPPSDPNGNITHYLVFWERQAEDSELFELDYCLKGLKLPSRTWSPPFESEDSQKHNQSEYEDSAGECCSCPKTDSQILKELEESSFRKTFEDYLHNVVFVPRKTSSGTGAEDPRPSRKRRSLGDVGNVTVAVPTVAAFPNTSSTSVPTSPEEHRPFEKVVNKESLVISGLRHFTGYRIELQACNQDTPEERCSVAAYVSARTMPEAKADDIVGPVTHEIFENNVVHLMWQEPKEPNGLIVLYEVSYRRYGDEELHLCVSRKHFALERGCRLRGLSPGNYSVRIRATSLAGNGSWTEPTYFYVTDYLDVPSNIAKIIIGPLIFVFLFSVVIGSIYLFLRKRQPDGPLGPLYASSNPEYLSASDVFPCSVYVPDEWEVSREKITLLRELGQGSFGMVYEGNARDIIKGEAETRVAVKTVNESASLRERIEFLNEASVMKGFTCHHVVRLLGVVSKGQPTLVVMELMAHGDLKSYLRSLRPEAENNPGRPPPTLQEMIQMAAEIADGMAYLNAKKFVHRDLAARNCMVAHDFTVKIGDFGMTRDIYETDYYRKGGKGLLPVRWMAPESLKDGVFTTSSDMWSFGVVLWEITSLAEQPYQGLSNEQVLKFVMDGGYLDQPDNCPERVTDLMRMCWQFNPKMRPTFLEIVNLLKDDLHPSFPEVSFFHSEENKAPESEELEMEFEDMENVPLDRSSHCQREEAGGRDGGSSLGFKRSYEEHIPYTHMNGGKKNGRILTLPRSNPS
# Method in brief: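 Receptor autophosphorylation measured by DELFIA, capturing IGF-1R or IRβ and detecting with europium anti-pTyr, reported as percent of IGF-1- or insulin-stimulated signal. Compounds (30 uM to 1.5 nM) added 2 h before ligand, then 15 min stimulation (IGF-1 30 ng/ml or insulin 3 ug/ml).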
SMILES,IC50 [1],IC50 [2],IC50 [3]
"COc1cc2c(cc1Nc1nc(Nc3cc4ccccc4cc3C(N)=O)c3cc[nH]c3n1)N(C(=O)CN(C)C)CC2 [Example 124, 3-[(2-{[1-(N,N-dimethylglycyl)-5-(methyloxy)-2,3-dihydro-1H-indol-6-yl]amino}-1H-pyrrolo[2,3-d]pyrimidin-4-yl)amino]-2-naphthalenecarboxamide]",0.251 to 1 nM,0.251 to 1 nM,100 to 500 nM
"CNC(=O)c1cc2ccccc2cc1Nc1nc(Nc2cc3c(cc2OC)CCN3C(=O)CN(C)C)nc2[nH]ccc12 [Example 125, 3-[(2-{[1-(N,N-dimethylglycyl)-5-(methyloxy)-2,3-dihydro-1H-indol-6-yl]amino}-1H-pyrrolo[2,3-d]pyrimidin-4-yl)amino]-N-methyl-2-naphthalenecarboxamide]",0.251 to 1 nM,0.251 to 1 nM,100 to 500 nM
"CCN(C)CC(=O)N1CCCc2cc(OC)c(Nc3nc(Nc4cccc(F)c4C(=O)NC)c4cc[nH]c4n3)cc21 [Example 132, 2-[(2{-[1-(N-ethyl-N-methylglycyl)-6-(methyloxy)-1,2,3,4-tetrahydro-7-quinolinyl]amino}-1H-pyrrolo[2,3-d]pyrimidin-4-yl)amino]-6-fluoro-N-methylbenzamide]",1.26 to 3.98 nM,5.01 to 200 nM,< 100 nM
"COc1cc2c(cc1Nc1nc(Nc3cccc(F)c3C(N)=O)c3cc[nH]c3n1)N(C(C)=O)CC2 [Example 134, 2-[(2-{[1-acetyl-5-(methyloxy)-2,3-dihydro-1H-indol-6-yl]amino}-1H-pyrrolo[2,3-d]pyrimidin-4-yl)amino]-6-fluorobenzamide]",1.26 to 3.98 nM,5.01 to 200 nM,< 100 nM
"CNC(=O)c1c(F)cccc1Nc1nc(Nc2cc3c(cc2OC)CCN3C(C)=O)nc2[nH]ccc12 [Example 135, 2-[(2-{[1-acetyl-5-(methyloxy)-2,3-dihydro-1H-indol-6-yl]amino}-1H-pyrrolo[2,3-d]pyrimidin-4-yl)amino]-6-fluoro-N-methylbenzamide]",5.01 to 158 nM,5.01 to 200 nM,> 500 nM
"CCN(CC)CC(=O)N1CCc2cc(OC)c(Nc3nc(Nc4cccc(F)c4C(=O)NC)c4cc[nH]c4n3)cc21 [Example 137, 2-[(2-{[1-(N,N-diethylglycyl)-5-(methyloxy)-2,3-dihydro-1H-indol-6-yl]amino}-1H-pyrrolo[2,3-d]pyrimidin-4-yl)amino]-6-fluoro-N-methylbenzamide]",5.01 to 158 nM,5.01 to 200 nM,100 to 500 nM
"COc1cc2c(cc1Nc1nc(Nc3cccc(F)c3C(N)=O)c3cc[nH]c3n1)NCC2 [Example 140, 2-fluoro-6-[(2-{[5-(methyloxy)-2,3-dihydro-1H-indol-6-yl]amino}-1H-pyrrolo[2,3-d]pyrimidin-4-yl)amino]benzamide]",5.01 to 158 nM,5.01 to 200 nM,> 500 nM
"COc1cc2c(cc1Nc1nc(Nc3cccc(F)c3C(N)=O)c3cc[nH]c3n1)N(C(=O)CN1CCC1)CC2 [Example 143, 2-[(2-{[1-(1-azetidinylacetyl)-5-(methyloxy)-2,3-dihydro-1H-indol-6-yl]amino}-1H-pyrrolo[2,3-d]pyrimidin-4-yl)amino]-6-fluorobenzamide]",0.251 to 1 nM,0.251 to 1 nM,100 to 500 nM
"COc1cc2c(cc1Nc1nc(Nc3cccc(F)c3C(N)=O)c3cc[nH]c3n1)N(C(=O)CN(C)OC)CC2 [Example 144, 2-fluoro-6-[(2-{[1-[N-methyl-N-(methyloxy)glycyl]-5-(methyloxy)-2,3-dihydro-1H-indol-6-yl]amino}-1H-pyrrolo[2,3-d]pyrimidin-4-yl)amino]benzamide]",5.01 to 158 nM,5.01 to 200 nM,> 500 nM
"COc1cc2c(cc1Nc1nc(Nc3cccc(F)c3C(N)=O)c3cc[nH]c3n1)N(C(=O)Cn1ccnc1)CC2 [Example 145, 2-fluoro-6-[(2-{[1-(1H-imidazol-1-ylacetyl)-5-(methyloxy)-2,3-dihydro-1H-indol-6-yl]amino}-1H-pyrrolo[2,3-d]pyrimidin-4-yl)amino]benzamide]",5.01 to 158 nM,5.01 to 200 nM,> 500 nM
"COc1cc2c(cc1Nc1nc(Nc3cccc(F)c3C(N)=O)c3cc[nH]c3n1)N(C(=O)N(C)C)CC2 [Example 146, 6-[(4-{[2-(aminocarbonyl)-3-fluorophenyl]amino}-1H-pyrrolo[2,3-d]pyrimidin-2-yl)amino]-N,N-dimethyl-5-(methyloxy)-2,3-dihydro-1H-indole-1-carboxamide]",5.01 to 158 nM,5.01 to 200 nM,> 500 nM
"COc1cc2c(cc1Nc1nc(Nc3cccc(F)c3C(N)=O)c3cc[nH]c3n1)N(C(=O)[C@@H]1CCCN1C)CC2 [Example 147, 2-fluoro-6-[(2-{[5-(methyloxy)-1-(1-methyl-L-prolyl)-2,3-dihydro-1H-indol-6-yl]amino}-1H-pyrrolo[2,3-d]pyrimidin-4-yl)amino]benzamide]",1.26 to 3.98 nM,5.01 to 200 nM,100 to 500 nM
"COCC(=O)N1CCc2cc(OC)c(Nc3nc(Nc4cccc(F)c4C(N)=O)c4cc[nH]c4n3)cc21 [Example 149, 2-fluoro-6-{[2-({5-(methyloxy)-1-[(methyloxy)acetyl]-2,3-dihydro-1H-indol-6-yl}amino)-1H-pyrrolo[2,3-d]pyrimidin-4-yl]amino}benzamide]",5.01 to 158 nM,5.01 to 200 nM,100 to 500 nM
"CNC(=O)c1c(F)cccc1Nc1nc(Nc2cc3c(cc2OC)CCN3C(=O)COC)nc2[nH]ccc12 [Example 150, 2-fluoro-N-methyl-6-{[2-({5-(methyloxy)-1-[(methyloxy)acetyl]-2,3-dihydro-1H-indol-6-yl}amino)-1H-pyrrolo[2,3-d]pyrimidin-4-yl]amino}benzamide]",5.01 to 158 nM,5.01 to 200 nM,> 500 nM
"CCNC(=O)c1c(F)cc(F)cc1Nc1nc(Nc2cc3c(cc2OC)CCN3C(=O)CN(C)C)nc2[nH]ccc12 [Example 151, 2-[(2-{[1-(N,N-dimethylglycyl)-5-(methyloxy)-2,3-dihydro-1H-indol-6-yl]amino}-1H-pyrrolo[2,3-d]pyrimidin-4-yl)amino]-N-ethyl-4,6-difluorobenzamide]",0.251 to 1 nM,0.251 to 1 nM,100 to 500 nM
"CCCNC(=O)c1c(F)cc(F)cc1Nc1nc(Nc2cc3c(cc2OC)CCN3C(=O)CN(C)C)nc2[nH]ccc12 [Example 152, 2-[(2-{[1-(N,N-dimethylglycyl)-5-(methyloxy)-2,3-dihydro-1H-indol-6-yl]amino}-1H-pyrrolo[2,3-d]pyrimidin-4-yl)amino]-4,6-difluoro-N-propylbenzamide]",1.26 to 3.98 nM,0.251 to 1 nM,100 to 500 nM
"COc1cc2c(cc1Nc1nc(Nc3ccc(F)c(F)c3C(=O)NC(C)C)c3cc[nH]c3n1)N(C(=O)CN(C)C)CC2 [Example 161, 6-[(2-{[1-(N,N-dimethylglycyl)-5-(methyloxy)-2,3-dihydro-1H-indol-6-yl]amino}-1H-pyrrolo[2,3-d]pyrimidin-4-yl)amino]-2,3-difluoro-N-(1-methylethyl)benzamide]",5.01 to 158 nM,5.01 to 200 nM,> 500 nM
"CCN(C)CC(=O)N1CCc2cc(OC)c(Nc3nc(Nc4cccc(F)c4C(=O)NC)c4cc[nH]c4n3)cc21 [Example 165, 2-[(2-{[1-(N-ethyl-N-methylglycyl)-5-(methyloxy)-2,3-dihydro-1H-indol-6-yl]amino}-1H-pyrrolo[2,3-d]pyrimidin-4-yl)amino]-6-fluoro-N-methylbenzamide]",5.01 to 158 nM,5.01 to 200 nM,100 to 500 nM
"CCCN(C)CC(=O)N1CCc2cc(OC)c(Nc3nc(Nc4cccc(F)c4C(N)=O)c4cc[nH]c4n3)cc21 [Example 168, 2-fluoro-6-[(2-{[5-(methyloxy)-1-(N-methyl-N-propylglycyl)-2,3-dihydro-1H-indol-6-yl]amino}-1H-pyrrolo[2,3-d]pyrimidin-4-yl)amino]benzamide]",0.251 to 1 nM,0.251 to 1 nM,< 100 nM
"COc1cc2c(cc1Nc1nc(Nc3cc(Cl)cc(F)c3C(N)=O)c3cc[nH]c3n1)N(C(=O)CN1CCCC1)CC2 [Example 175, 4-chloro-2-fluoro-6-[(2-{[5-(methyloxy)-1-(1-pyrrolidinylacetyl)-2,3-dihydro-1H-indol-6-yl]amino}-1H-pyrrolo[2,3-d]pyrimidin-4-yl)amino]benzamide]",0.251 to 1 nM,0.251 to 1 nM,< 100 nM
"COc1cc2c(cc1Nc1nc(Nc3cc(F)cc(F)c3C(N)=O)c3cc[nH]c3n1)N(C(=O)CN(C)C)CCC2 [Example 178, 2-[(2-{[1-(N,N-dimethylglycyl)-6-(methyloxy)-1,2,3,4-tetrahydro-7-quinolinyl]amino}-1H-pyrrolo[2,3-d]pyrimidin-4-yl)amino]-4,6-difluorobenzamide]",0.251 to 1 nM,0.251 to 1 nM,< 100 nM
"CNC(=O)c1c(F)cc(F)cc1Nc1nc(Nc2cc3c(cc2OC)CCCN3C(=O)CN(C)C)nc2[nH]ccc12 [Example 179, 2-[(2-{[1-(N,N-dimethylglycyl)-6-(methyloxy)-1,2,3,4-tetrahydro-7-quinolinyl]amino}-1H-pyrrolo[2,3-d]pyrimidin-4-yl)amino]-4,6-difluoro-N-methylbenzamide]",0.251 to 1 nM,0.251 to 1 nM,< 100 nM
